In US20170135322A1, “A BIOCONTROL COMBINATION AND METHOD FOR IMPROVING QUALITY OF SHELLED EGGS” (NOBACTRA ISRAEL Ltd., priority 2014, published 2017):
“And” between values parts separate entries of the source, which are not always exact repeats. Equal values may be shown once.

Experiments:
Test in all cases: Effect on fungi growth (Example III)
Assay type in all cases: cell-based
[1] = tested on: Fusarium Spp. (isolate #1); conditions: additive 10%, without biocontrol formulation, initial diameter 0.5 cm
Text: (§1) The effect of various additives on fungi growth was examined. The fungi examined included two isolates of Fusarium Spp. (isolate #1 and isolate #2), sclerotium, and trychoderma.
(§2) The larger the colony's dimension (diameter) in the petri dish, the lower is the inhibitory effect of the additive. The initial diameter of the colony before treatment was 0.5 cm.

[2] = tested on: Fusarium Spp. (isolate #2); conditions: additive 10%, without biocontrol formulation, initial diameter 0.5 cm
Text: as §1, §2

sclerotium = conditions: additive 10%, without biocontrol formulation, initial diameter 0.5 cm
Text: as §1, §2

trychoderma = conditions: additive 10%, without biocontrol formulation; initial diameter 0.5 cm
Text: as §1, §2

Compound | colony size (diameter) [1] | colony size (diameter) [2] | colony size (diameter) (sclerotium) [cm] | colony size (diameter) (trychoderma) [cm] | colony size (diameter) ([1]; hydrate) | colony size (diameter) ([2]; hydrate) | colony size (diameter) (sclerotium; hydrate)
O=C([O-])O.[Na+] [Sodium bicarbonate, sodium bicarbonate] | 1.0 cm and 1.1 cm | 0.5 cm | 0.5 | 0.5 |  |  | 
O=C([O-])O.[K+] [Potassium bicarbonate, potassium becarbonate] | 1.6 cm and 1.5 cm and 2.0 cm and 1.8 cm | 1.3 cm and 1.2 cm | 0.5 | 0.5 |  |  | 
O.O.O.O.O.O.O.O=S(=O)([O-])[O-].[Mg+2] [Magnesium sulphate hepta hydrate, magnesiumsulphate hepta hydrate] |  |  |  | 0.5 | 3.2 cm and 3.1 cm | 3.0 cm and 3.1 cm | 3.0 cm and 2.7 cm and 2.5 cm and 2.2 cm
